Read-outs that look alike come from different tables or passages of the source. *1 amine or outer side, *2 acyl side, *3 side chain or, on linkers, in order; H or OH if unused. Where a SMILES comes first, the peptide text is derived from it. Bridges are numbered along the chain shown (N, C = ends). [ ]: non-standard residue; d: D form. ξ: configuration not given here. ξαMeNle(6-ylidene) = CC(CCCC=[*:3])(N[*:1])C(=O)[*:2]; X1 = CC(CCCCCCC=[*:3])(N[*:1])C(=O)[*:2]; R8 = C=CCCCCCC[C@@](C)(N)C(=O)O; R5 = C=CCCC[C@@](C)(N)C(=O)O; S5 = C=CCCC[C@](C)(N)C(=O)O; Ahx = NCCCCCC(=O)O
Tests used:
[1] = system: p53 transcriptional activity in T22 cells; assay: T22 p53 β-galactosidase based reporter assay; format: cell-based, murine; settings: for ability to induce p53 activity in T22 reporter assay: with and without serum; for IC50: T22 p53 reporter assay, 18 h
Description: The YS-01/04 peptides were screened in a murine T22-derived p53 reporter assay, either with or without fetal calf serum, to assess their ability to induce p53 transcriptional activity in intact cells (Table 1 and FIG. 3).
(§1) T22 cells, which were stably transfected with a p53 responsive β-galactosidase reporter, were seeded into 96-well plate at a cell density of 8000 cells per well. Cells were also maintained in Dulbecco's Minimal Eagle Medium (DMEM) with 10% fetal bovine serum (FBS) and penicillin/streptomycin. […] Measurements were carried out using a Safire II multiplate reader. Experiments were carried out independently twice.

[2] = Circular dichroism spectroscopy (helicity in solution); format: physicochemical; settings: peptide unbound in solution
T22 cells = assay: Lactate dehydrogenase release assay, T22 cells; format: cell-based; settings: 2 h, 50/25/12.5 μM, absence or presence of serum
Description: (§2) The stapled YS-01/04 peptides were also screened for their ability to perturb the cell membrane wall of T22 and ARN8 cells and release cytosolic lactate dehydrogenase (LDH). An effect that is regarded as undesirable as this may indicate that the peptide is non-specifically toxic to different cell types. A short 2 hour time treatment period is used for this assay as it is assumed that perforation of the cell membrane occurs […] for cell programmed death. […] The lactate dehydrogenase leakage measured was much greater in ARN8 cells than T22 cells, showing that different cells vary in their sensitivities to the membrane disruptive properties of YS-03. […] This implies that p53 activation, which is also supported by the data for YS-04, does occur in the absence of membrane disruption and that the biological activity observed for is not a direct consequence of cellular toxicity.
(§3) T22 cells or ARN8 cells, both of which were stably transfected with a p53 responsive β-galactosidase reporter, were seeded into a 96-well plate at a cell density of 5000 cells per well. Cells were also maintained in Dulbecco's Minimal Eagle Medium (DMEM) with 10% fetal bovine serum (FBS) and penicillin/streptomycin. The cells were incubated for 24 hours and then treated with compounds/peptide for 2 hours in DMEM with or without 10% FBS. Cytosolic lactate dehydrogenase release was detected using the non-radioactive cytotoxicity Assay kit (Promega) as per manufacturer's instructions. Measurements were carried out using an Envision multiplate reader.

ARN8 cells = assay: Lactate dehydrogenase release assay, ARN8 cells; format: cell-based; settings: 2 h, 50/25/12.5 μM, absence or presence of serum
Description: as §2, §3

[3] = biological target: N-terminal domain of Mdm2 (1-125) (Homo sapiens, UniProt Q00987); assay: Competitive fluorescence anisotropy titration (apparent Kd); settings: for Kd stronger in comparison to sMTIDE-02: ratio to sMTIDE-02 Kd
Description: In this assay, a N-terminally FAM labelled peptide of the sequence [sequence]
The cells expressing the Mdm2 GST fusion construct were grown in LB medium at 37° C. to an OD600 of ˜0.6 and induction was carried out with 1 mM isopropyl β-D-1-thiogalactopyranoside (IPTG) at room temperature. Cells were harvested by centrifugation and the cell pellets were resuspended in 50 mM Tris pH 8.0, 10% sucrose and then sonicated. The sonicated sample was centrifuged for 60 minutes at 17,000 g at 4° C. […] The column was then further washed by 6 volumes of wash buffer. Mdm2 were then purified from the column by cleavage with PreScission protease. 10 units of PreScission protease, in one column volume of PBS with 1 mM DTT buffer, were injected onto the column. The cleavage reaction was allowed to proceed overnight at 4° C. The cleaved protein was then eluted of the column with wash buffer. Protein fractions were analysed with SDS-PAGE and concentrated using a Centricon (3.5 kDa molecular weight cut-off (MWCO)) concentrator. The Mdm2 protein sample was then dialyzed into a buffer solution containing 20 mM Bis-Tris, pH 6.5, 0.05M NaCl with 1 mM DTT and loaded onto a monoS column pre-equilibrated in buffer A (20 mM Bis-Tris, pH 6.5, 1 mM DTT). The column was then washed in 6 column volumes of buffer A and bound protein was eluted with a linear gradient of 1M NaCl over 25 column volumes. Protein fractions were analysed with sodium dodecyl sulfate-polyacrylamide gel electrophoresis (SDS-PAGE) and concentrated using a Centricon (3.5 kDa molecular weight cut-off (MWCO)) concentrator.
Apparent dissociation constant (Kd) values were determined for a variety of molecules via competitive fluorescence anisotropy experiments. […] The competing molecules were then titrated against the complex of the FAM labelled peptide and protein. Apparent dissociation constant (Kd) values were determined by fitting the experimental data to the equations shown below:
[L]st and [L]t denote labelled ligand and total unlabelled ligand input concentrations, respectively. Kd2 is the dissociation constant of the interaction between the unlabelled ligand and the protein. In all competitive types of experiments, it is assumed that [P]t>[L]st, otherwise considerable amounts of free labelled ligand would always be present and would interfere with measurements. […] The FAM-labelled peptide was dissolved in dimethyl sulfoxide (DMSO) at 1 mM and diluted into experimental buffer. Readings were carried out with a Envision Multilabel Reader. […] All titrations were carried out in triplicate. Curve-fitting was carried out using Prism 4.0 (GraphPad). […]

[4] = system: p53 transcriptional activity in ARN8 cells; assay: ARN8 β-galactosidase based p53 reporter assay; format: cell-based, Human; settings: 18 h; for p53 activation (β-galactosidase activity) in ARN8 cells: serum free
Description: ARN8 cells contain the same β-galactosidase gene under the control of a p53 promoter that is stably transfected into T22 cells. […] The YS-07 and YS-09 titrations were again repeated and the lactate dehydrogenase leakage from ARN8 cells measured instead (FIGS. 8c and 8d).
as §1, with “ARN8” for “T22”

[5] = absence of serum, read-out: T22 IC50 (0% μM)
[6] = presence of 10% fetal calf serum, read-out: T22 Ic50 (10% μM)

Chain of N-terminal domain of Mdm2 (1-125) (Q00987 1-125): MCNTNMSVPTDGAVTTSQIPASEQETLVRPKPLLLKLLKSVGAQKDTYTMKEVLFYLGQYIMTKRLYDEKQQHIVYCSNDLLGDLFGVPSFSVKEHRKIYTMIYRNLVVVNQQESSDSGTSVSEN

| SMILES | ability to induce p53 activity in T22 reporter assay [1] | helicity in solution (CD spectra) [2] | IC50 [1, 5] | IC50 [1, 6] | further results |
| --- | --- | --- | --- | --- | --- |
| CC(=O)N[C@H](C(=O)N[C@@H](CO)C(=O)N[C@@H](Cc1ccccc1)C(=O)N[C@]1(C)CCCC=CCCC[C@](C)(C(=O)N[C@@H](CC(C)C)C(=O)N[C@@H](CC(C)C)C(=O)N[C@@H](CO)C(=O)N[C@@H](CCC(=O)O)C(=O)N[C@@H](CC(N)=O)C(=O)N[C@@H](Cc2ccc(O)cc2)C(N)=O)NC(=O)[C@H](Cc2c[nH]c3ccccc23)NC(=O)[C@H](Cc2ccc(O)cc2)NC(=O)[C@H](CCC(=O)O)NC1=O)[C@@H](C)O [YS-06, Ac-^17TSFX5EYWX5LLSENY^30-NH2] (Ac-TSF[R5]EYW[R5]LLSENY-NH2; staple 4-8) | improvement of both peptides to activate p53 | significantly more helical structure | – | – | – |
| CC(=O)N[C@@H](CCCNC(=N)N)C(=O)N[C@@H](CCCNC(=N)N)C(=O)N[C@@H](CCCNC(=N)N)C(=O)NCCCCCC(=O)N[C@H](C(=O)N[C@@H](CO)C(=O)N[C@@H](Cc1ccccc1)C(=O)NC1(C)CCCCCCC=CCCCC(C)(C(=O)N[C@@H](CCC(=O)O)C(=O)N[C@@H](CC(N)=O)C(=O)N[C@@H](Cc2ccc(O)cc2)C(N)=O)NC(=O)[C@H](CC(C)C)NC(=O)[C@H](CC(C)C)NC(=O)[C@H](C)NC(=O)[C@H](Cc2c[nH]c3ccccc23)NC(=O)[C@H](Cc2ccc(O)cc2)NC(=O)[C@H](CCC(=O)O)NC1=O)[C@@H](C)O (stereo partly shown) [YS-10, Ac-RRR-Ahx-^17TSFX8EYWALLS5ENY^30-NH2] (Ac-RRR[Ahx]TSF[X1]EYWALL[ξαMeNle(6-ylidene)]ENY-NH2; staple 8-15) | – | – | 1.69 µM | 17.9 µM | – |
| CC(=O)N[C@H](C(=O)N[C@@H](CO)C(=O)N[C@@H](Cc1ccccc1)C(=O)NC1(C)CCCC=CCCCC(C)(C(=O)N[C@@H](CC(C)C)C(=O)N[C@@H](CC(C)C)C(=O)N2CCC[C@H]2C(=O)N[C@@H](CCC(=O)O)C(=O)N[C@@H](CC(N)=O)C(=O)N[C@@H](Cc2ccc(O)cc2)C(N)=O)NC(=O)[C@H](Cc2c[nH]c3ccccc23)NC(=O)[C@H](Cc2ccc(O)cc2)NC(=O)[C@H](CCC(=O)O)NC1=O)[C@@H](C)O (stereo partly shown) [YS-02, Ac-^17TSFX5EYWX5LLPENY^30-NH2] (Ac-TSF[ξαMeNle(6-ylidene)]EYW[ξαMeNle(6-ylidene)]LLPENY-NH2; staple 4-8) | – | – | – | – | cytosolic lactate dehydrogenase (LDH) release (T22 cells): negligible lactate dehydrogenase release; cytosolic lactate dehydrogenase (LDH) release (ARN8 cells): negligible lactate dehydrogenase release; Kd stronger in comparison to sMTIDE-02 [3]: approximately 3 fold |
| CC(=O)N[C@@H](CCCCN)C(=O)N[C@@H](CCCCN)C(=O)NCCCCCC(=O)N[C@H](C(=O)N[C@@H](CO)C(=O)N[C@@H](Cc1ccccc1)C(=O)N[C@]1(C)CCCCCCC=CCCC[C@@](C)(C(=O)N[C@@H](CCC(=O)O)C(=O)N[C@@H](CC(N)=O)C(=O)N[C@@H](Cc2ccccc2)C(N)=O)NC(=O)[C@H](CC(C)C)NC(=O)[C@H](CC(C)C)NC(=O)[C@H](C)NC(=O)[C@H](Cc2c[nH]c3ccccc23)NC(=O)[C@H](Cc2ccc(O)cc2)NC(=O)[C@H](CCC(=O)O)NC1=O)[C@@H](C)O [YS-07, Ac-KK-Ahx-^17TSFX8EYWALLS5ENF^30-NH2] (Ac-KK[Ahx]TSF[R8]EYWALL[S5]ENF-NH2; staple 7-14) | most potent | – | ~0.78 µM | 9.95 µM | p53 activation (β-galactosidase activity) in ARN8 cells [4]: efficiently induced β-galactosidase activity |
| CC(=O)N[C@H](C(=O)N[C@@H](CO)C(=O)N[C@@H](Cc1ccccc1)C(=O)NC1(C)CCCCCCC=CCCCC(C)(C(=O)N[C@@H](CCC(=O)O)C(=O)N[C@@H](CC(N)=O)C(=O)N[C@@H](Cc2ccc(O)cc2)C(N)=O)NC(=O)[C@H](CC(C)C)NC(=O)[C@H](CC(C)C)NC(=O)[C@H](C)NC(=O)[C@H](Cc2c[nH]c3ccccc23)NC(=O)[C@H](Cc2ccc(O)cc2)NC(=O)[C@H](CCC(=O)O)NC1=O)[C@@H](C)O (stereo partly shown) [YS-04, Ac-^17TSFX8EYWALLS5ENY^30-NH2] | greater potency in the T22 assay than YS-01 and YS-02 | significantly more helical in character in solution than YS-01 and YS-02 | 9.73 µM | 78.3 µM | Kd weaker than the i,i+4 analogue peptides (YS-01 and YS-02) ([3]; ratio to YS-01/YS-02 Kd): approximately 2 fold |
| CC(=O)N[C@H](C(=O)N[C@@H](CO)C(=O)N[C@@H](Cc1ccccc1)C(=O)NC1(C)CCCC=CCCCC(C)(C(=O)N[C@@H](CC(C)C)C(=O)N[C@@H](CC(C)C)C(=O)N[C@@H](CO)C(=O)N[C@@H](CCC(=O)O)C(=O)N[C@@H](CC(N)=O)C(=O)N[C@@H](Cc2ccccc2)C(N)=O)NC(=O)[C@H](Cc2c[nH]c3ccccc23)NC(=O)[C@H](Cc2ccc(O)cc2)NC(=O)[C@H](CCC(=O)O)NC1=O)[C@@H](C)O (stereo partly shown) [YS-05, Ac-^17TSFX5EYWX5LLSENF^30-NH2] (Ac-TSF[ξαMeNle(6-ylidene)]EYW[ξαMeNle(6-ylidene)]LLSENF-NH2; staple 4-8) | improvement of both peptides to activate p53 | significantly more helical structure | – | – | cytosolic lactate dehydrogenase (LDH) release (T22 cells): negligible activity; cytosolic lactate dehydrogenase (LDH) release (ARN8 cells): negligible activity |
| CC(=O)N[C@@H](CCCNC(=N)N)C(=O)N[C@@H](CCCNC(=N)N)C(=O)N[C@@H](CCCNC(=N)N)C(=O)NCCCCCC(=O)N[C@H](C(=O)N[C@@H](CO)C(=O)N[C@@H](Cc1ccccc1)C(=O)NC1(C)CCCCCCC=CCCCC(C)(C(=O)N[C@@H](CCC(=O)O)C(=O)N[C@@H](CC(N)=O)C(=O)N[C@@H](Cc2ccccc2)C(N)=O)NC(=O)[C@H](CC(C)C)NC(=O)[C@H](CC(C)C)NC(=O)[C@H](C)NC(=O)[C@H](Cc2c[nH]c3ccccc23)NC(=O)[C@H](Cc2ccc(O)cc2)NC(=O)[C@H](CCC(=O)O)NC1=O)[C@@H](C)O (stereo partly shown) [YS-09, Ac-RRR-Ahx-^17TSFX8EYWALLS5ENF^30-NH2] (Ac-RRR[Ahx]TSF[X1]EYWALL[ξαMeNle(6-ylidene)]ENF-NH2; staple 8-15) | – | – | 1.98 µM | 11.6 µM | p53 activation in ARN8 cells ([4]; 10% serum): slightly more activity than YS-07; p53 activation (β-galactosidase activity) in ARN8 cells [4]: sharp burst of p53 transcriptional activity at 3.125 μM followed by a sharp decline at higher concentrations |
| CC(=O)N[C@H](C(=O)N[C@@H](CO)C(=O)N[C@@H](Cc1ccccc1)C(=O)N[C@]1(C)CCCC=CCCC[C@](C)(C(=O)N[C@@H](CC(C)C)C(=O)N[C@@H](CC(C)C)C(=O)N2CCC[C@H]2C(=O)N[C@@H](CCC(=O)O)C(=O)N[C@@H](CC(N)=O)C(=O)N[C@@H](Cc2ccccc2)C(N)=O)NC(=O)[C@H](Cc2c[nH]c3ccccc23)NC(=O)[C@H](Cc2ccc(O)cc2)NC(=O)[C@H](CCC(=O)O)NC1=O)[C@@H](C)O [YS-01, Ac-^17TSFX5EYWX5LLPENF^30-NH2] (Ac-TSF[R5]EYW[R5]LLPENF-NH2; staple 4-8) | – | – | – | – | Kd stronger in comparison to sMTIDE-02 [3]: approximately 3 fold |
| CC(=O)N[C@@H](CCCCN)C(=O)N[C@@H](CCCCN)C(=O)NCCCCCC(=O)N[C@H](C(=O)N[C@@H](CO)C(=O)N[C@@H](Cc1ccccc1)C(=O)N[C@]1(C)CCCCCCC=CCCC[C@@](C)(C(=O)N[C@@H](CCC(=O)O)C(=O)N[C@@H](CC(N)=O)C(=O)N[C@@H](Cc2ccc(O)cc2)C(N)=O)NC(=O)[C@H](CC(C)C)NC(=O)[C@H](CC(C)C)NC(=O)[C@H](C)NC(=O)[C@H](Cc2c[nH]c3ccccc23)NC(=O)[C@H](Cc2ccc(O)cc2)NC(=O)[C@H](CCC(=O)O)NC1=O)[C@@H](C)O [YS-08, Ac-KK-Ahx-^17TSFX8EYWALLS5ENY^30-NH2] (Ac-KK[Ahx]TSF[R8]EYWALL[S5]ENY-NH2; staple 7-14) | least potent amongst the four peptides | – | 7.29 µM | 23.4 µM | – |

— patent publication US11319344B2, “Non-membrane disruptive P53 activating stapled peptides” (AGENCY FOR SCIENCE, TECHNOLOGY AND RESEARCH, priority 2015, dated 2022)
